In data set [1] the target is T1, 5-HT6 receptor (Homo sapiens, UniProt P50406). The conditions noted are these: 5-HT6 receptor (Sleight, 1998); cited from earlier work.
The conditions of data set [2]: Sleight, 1998; cited from earlier work.
The conditions of data set [3]: Rogers, 1999; cited from earlier work.
The target in data set [4] is T1, 5-HT6 receptor. As to the kind of experiment: In vitro affinity for human 5-HT6 receptors, [3H]-LSD binding in CHO cell membranes. Further details: host or cells: CHO/Gα16/mtAEQ/h5HT6-A1 (CHO AequoScreen recombinant cell line). The settings on record: [3H]-LSD 5.0 nM, membranes of CHO cells transfected with human 5-HT6; read-out: 5-HT6 pKi (converted).
Description: Affinity for human 5-HT6 receptors was measured in a membrane preparation of CHO-cells transfected with human 5-HT6 receptors by binding studies using [^3H]-N-Methyl-Lysergic acid diethylamide ([^3H]-LSD) as ligand. […] CHO/Gα16/mtAEQ/h5HT6-A1 cells were grown in T-flasks in CHO-S-SFM II medium (Gibco BRL), supplemented with 1% dialysed FCS, 2 mM L-glutamine, Geneticin 500 μg/ml and Zeocin 200 μg/ml. […] After thawing cells were centrifuged during 3 minutes at 1500 g at 4° C. […] The assay was established so as to achieve steady state conditions and to optimize specific binding. For the 5-HT6 receptor, membranes from 5.10^5 cells were incubated with 5.0 nM [^3H]-LSD at 37° C. for 30 minutes. Nonspecific binding was determined using 10^−5 M serotonin. Assays were terminated by vacuum filtration through glass fiber filters (GF/B) which had been pretreated with 0.5% polyethyleneimine. Total and bound radioactivity was determined by liquid scintillation counting. […] Compounds were tested at a 4 log concentration range; all determinations were performed as triplicates. IC50 values were determined by non-linear regression analysis using Hill equation curve fitting. The inhibition constants (Ki-values) were calculated from the Cheng-Preushoff equation: Ki=IC50:(1+L/Kd) wherein L represents the concentration radioligand ([^3H]-LSD) in the assay, and Kd the affinity of the radioligand for the receptor. Results are expressed as pKi-values, means±SD of at least three separate experiments.
Data set [5] has as its target T1, 5-HT6 receptor. As to the kind of experiment: In vitro functional activity (antagonism) on human 5-HT6 receptors, CHO-human-5HT6-Aequorin assay. Details: host or cells: CHO/Gα16/mtAEQ/h5HT6-A1 (CHO AequoScreen recombinant cell line). In kind it is cell-based.
Description: Human-5-HT6-Aequorin cells express mitochondrial targeted apo-Aequorin. Cells have to be loaded with coelanterazine, in order to reconstitute active Aequorin. […] This luminescent response is dependent on the agonist concentration. Luminescence is measured using the MicroBeta Jet (Perkin Elmer). Agonistic effects of compounds are expressed as pEC50. […] Compounds were tested at a 5 log concentration range, and 3 independent experiments were performed in duplicate.
The mark [6] stands for this setting: antagonism of 10^-8 M α-methylserotonin induced luminescence, CHO-human-5HT6-Aequorin cells, read-out: 5-HT6 pA2 (converted).

The structures appear in SMILES notation. Read-outs that look alike come from different tables or passages of the source.

T1 sequence (P50406 whole entry): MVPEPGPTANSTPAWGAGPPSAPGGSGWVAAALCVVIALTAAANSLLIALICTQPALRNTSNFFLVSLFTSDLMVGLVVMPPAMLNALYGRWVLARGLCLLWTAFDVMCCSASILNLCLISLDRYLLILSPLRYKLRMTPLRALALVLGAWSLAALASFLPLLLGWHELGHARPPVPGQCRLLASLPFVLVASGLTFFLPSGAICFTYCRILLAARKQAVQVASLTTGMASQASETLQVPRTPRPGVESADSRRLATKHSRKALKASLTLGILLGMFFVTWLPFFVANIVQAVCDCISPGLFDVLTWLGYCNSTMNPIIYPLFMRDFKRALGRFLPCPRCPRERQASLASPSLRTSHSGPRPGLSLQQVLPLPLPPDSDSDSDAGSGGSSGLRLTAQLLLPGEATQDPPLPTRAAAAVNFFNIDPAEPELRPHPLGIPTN

As a reminder, the melting point is the temperature of the solid-liquid transition. On to `CN/C(=N\S(=O)(=O)c1ccc(F)cc1)N1CCC(c2ccc(Cl)cc2)=N1`, for which the melting point lay within 188 to 189 °C.

`CCN/C(=N\S(=O)(=O)c1ccc(Cl)cc1)N1CC(CC)C=N1` (stereo not drawn) displayed a melting point of 84 to 86 °C.

Compound `CCN/C(=N\S(=O)(=O)c1cccc2ccccc12)N1CC(CC)C=N1` (stereo not drawn) yielded a melting point of 79 to 80 °C.

For `CCN/C(=N\S(=O)(=O)c1ccccc1Cl)N1CCC(CC)=N1`, the melting point lay within 91 to 93 °C.

For the compound `CCC1C=NN(/C(N)=N/S(=O)(=O)c2c(Cl)nc3sccn23)C1` (single isomer, unassigned; (+)) [(+)123], the melting point was in the range of 146 to 147 °C.

`CCC1C=NN(/C(N)=N/S(=O)(=O)c2c(Cl)nc3sccn23)C1` (single isomer, unassigned; (-)) [(−)-123] yielded a melting point of 176 to 178 °C.

As for `CNc1cc(NS(=O)(=O)c2ccc(N)cc2)nc(NC)n1` [Ro 04-6790], the Ki at 5-HT6 receptor [1] was 50 nM. For the same compound, in data set [2], the pharmacokinetics entry was “poor”.

As for `CNc1cc(NS(=O)(=O)c2ccc(N)cc2)cc(NC)n1` [Ro 63-0563], at 5-HT6 receptor [1], the Ki was 12 nM. Besides, the pharmacokinetics result in data set [2] was “poor”.

With `COc1ccc(NS(=O)(=O)c2sc3ccc(Cl)cc3c2C)cc1N1CCNCC1` [SB-271046], in data set [3], the “performance in the Morris water maze” value is “improved performance”.

The compound `CCC1C=NN(/C(N)=N/S(=O)(=O)c2ccccc2Cl)C1` (stereo not drawn) [compound 3] yielded a melting point of 161 to 163 °C.

In the case of `CCC1C=NN(/C(=N/S(=O)(=O)c2ccccc2Cl)N(C)C)C1` (stereo not drawn) [compound 5], the melting point lay in the range of 94 to 95 °C.

Turning to `CCC1C=NN(/C(=N/S(=O)(=O)c2ccccc2Cl)NCC2CCNCC2)C1` (stereo not drawn) [compound 11], the melting point was in the range of 131 to 138 °C.

`CCC1C=NN(/C(=N/S(=O)(=O)c2ccccc2Cl)Nc2ccccc2)C1` (stereo not drawn) [compound 12] displayed a melting point of 128 to 130 °C.

`CCC1C=NN(/C(=N/S(=O)(=O)c2ccccc2Cl)N2CCNCC2)C1` (stereo not drawn) [compound 16] had a melting point of 162 to 173 °C. The Ki on 5-HT6 receptor [4] is 200 nM.

`CCN/C(=N\S(=O)(=O)c1ccccc1)N1CC(CC)C=N1` (stereo not drawn) [compound 24] yielded a melting point of 43 to 45 °C.

As to `CCC1C=NN(/C(N)=N/S(=O)(=O)c2cccc(Cl)c2)C1` (stereo not drawn) [compound 29], the melting point was 141 to 142 °C.

As to `CCC1C=NN(/C(N)=N/S(=O)(=O)c2ccc(Cl)cc2)C1` (stereo not drawn) [compound 30], the melting point is 114 to 115 °C. In addition, at 5-HT6 receptor [5] (setting [6]), the Kb was 1260 nM.

Turning to `CCC1C=NN(/C(N)=N/S(=O)(=O)c2ccc(C)cc2)C1` (stereo not drawn) [compound 31], the melting point lay in the range of 131 to 133 °C.

For `N/C(=N\S(=O)(=O)c1cccc(Cl)c1)N1CC2(C=N1)CCCC2` [compound 97], the melting point is 146 to 147 °C.

For `CC1(C)C=NN(/C(N)=N/S(=O)(=O)c2ccc(Cl)s2)C1` [compound 102], the melting point lay in the range of 162 to 164 °C.

With `CCC1C=NN(/C(N)=N/S(=O)(=O)c2ccc(Cl)s2)C1` (stereo not drawn) [compound 105], the melting point was in the range of 115 to 116 °C.

Regarding `N/C(=N\S(=O)(=O)c1ccc(Cl)s1)N1CC2(C=N1)CCCC2` [compound 107], the melting point came out at 184 °C.

`CCC1CN(/C(=N/S(=O)(=O)c2cccc(Cl)c2)NC)N=C1C` (stereo not drawn) [compound 109] came in with a melting point of 155 to 156 °C.

`CCC1CN(/C(N)=N/S(=O)(=O)c2cccc(Cl)c2)N=C1C` (stereo not drawn) [compound 113] came in with a melting point of 121 to 123 °C.

Take `CCN/C(=N\S(=O)(=O)c1c(Cl)nc2sccn12)N1CC(C)(C)C=N1` [compound 114]: the melting point fell in the range of 139 to 141 °C.

In turn, `CC1=NN(/C(N)=N/S(=O)(=O)c2cccc(Cl)c2)CC1(C)C` [compound 115] gave a melting point of 135 to 137 °C.

In turn, `CC1=NN(/C(N)=N/S(=O)(=O)c2c(Cl)nc3sccn23)CC1(C)C` [compound 117] returned a melting point of 169 to 171 °C.

The compound `CCC1CN(/C(N)=N/S(=O)(=O)c2ccc(Cl)s2)N=C1C` (stereo not drawn) [compound 121] came in with a melting point of 155 to 156 °C.

Compound `CC1(C)C=NN(/C(N)=N/S(=O)(=O)c2c(Cl)nc3sccn23)C1` [compound 127] came in with a melting point of 198 to 199 °C.

Compound `CCC1CN(/C(N)=N/S(=O)(=O)c2c(Cl)nc3sccn23)N=C1C` (stereo not drawn) [compound 130] returned a melting point of 139 to 140 °C. Moreover, the Ki on 5-HT6 receptor [4] was 79.4 nM. Moreover, the Kb at 5-HT6 receptor [5] (setting [6]) was 6.31 nM.

`N/C(=N\S(=O)(=O)c1c(Cl)nc2sccn12)N1CC2(C=N1)CCCC2` [compound 131] showed a melting point of 174 to 177 °C.

In turn, `CCN/C(=N\S(=O)(=O)c1c(Cl)nc2sccn12)N1CC2(C=N1)CCCC2` [compound 133] gave a melting point of 146 to 147 °C. Also, the Ki on 5-HT6 receptor [4] was 1.58 nM. Also, the Kb on 5-HT6 receptor [5] (setting [6]) is 0.158 nM.

As to `CCN/C(=N\S(=O)(=O)c1ccc(N)cc1)N1CC(CC)C=N1` (stereo not drawn) [compound 134], the melting point was in the range of 122 to 125 °C.

On to `CN1CCN(/C(=N\S(=O)(=O)c2ccc(F)cc2)N2CCC(c3ccc(Cl)cc3)=N2)CC1` [compound 136], for which the melting point fell in the range of 179 to 184 °C.

In turn, `CN(C)/C(=N\S(=O)(=O)c1ccc(F)cc1)N1CCC(c2ccc(Cl)cc2)=N1` [compound 137] yielded a melting point of 149 to 150 °C.

In turn, `CCN/C(=N\S(=O)(=O)c1ccccc1Cl)N1CCC(c2ccccc2)=N1` [compound 138] showed a melting point of 138 to 140 °C. Further, the Ki at 5-HT6 receptor [4] is 631 nM.

Take `CC1=NN(/C(N)=N/S(=O)(=O)c2cccc(Cl)c2)CC1c1ccccc1` (stereo not drawn) [compound 141]: the melting point fell in the range of 165 to 166 °C. Besides, the Ki at 5-HT6 receptor [4] was 158 nM.

`CCN/C(=N\S(=O)(=O)c1ccccc1Cl)N1N=CCC1c1ccccc1` (stereo not drawn) [compound 142] yielded a melting point of 164 to 166 °C. Further, the Kb at 5-HT6 receptor [5] is 50.1 nM.

`CCN/C(=N\S(=O)(=O)c1cccc(Cl)c1)N1N=CCC1c1ccccc1` (stereo not drawn) [compound 143] showed a melting point of 124 to 126 °C.

With `CCN/C(=N\S(=O)(=O)N(C)C)N1CC(CC)C=N1` (stereo not drawn) [compound 171], the melting point is 60 to 61 °C.
